Data set [1] is described as follows: Pharmacokinetics in male Sprague Dawley rats after intravenous and subcutaneous injection (Example 10). It counts as in vivo. The settings on record: 1 μmol net peptide/kg, rat; for Tlast (last time point with detectable peptide): listed as HBD1 (3-11) with stearic acid at the N-terminus (C18:0). As for the experimental part:
The peptides were reconstituted in saline (0.9% NaCl). Three male Sprague Dawley rats were used per group. Intravenous doses were administered into a lateral tail vein at the dose of 1 μmol net peptide/kg. Subcutaneous doses were administered into the right flank of each animal, also at the dose of 1 μmol net peptide/kg. Following dosing, serial whole blood samples (ca. 0.25 mL) were collected from a lateral tail vein into K2EDTA treated containers. Following each blood sample collection, samples were placed into a cooling block at 4° C. Samples were collected prior to dosing then at 2, 5, 15 and 30 minutes then 1, 2, 4, 6 and 8 and 24 hours post dose for intravenous injection and at 15 and 30 minutes then 1, 2, 4, 6, 8 and 24 hours post dose for subcutaneous injection.
Blood samples were centrifuged at 10000×g for 2 minutes at 4° C. and resultant plasma aspirated off into clean fully, labelled tubes. Plasma samples were snap frozen following aspiration then stored at −80° C. Peptides were extracted and analyzed as described in Example 9. The limits of quantification of these methods were 0.001 nmol/mL for cyclic HBD1 (3-11) and HBD1 (3-11) and 0.003 nmol/mL for HBD1 (1-13). All values below these limits of quantification were considered as zero.

Data set [2] is described as follows: Pharmacokinetics in Göttingen minipigs after intravenous and subcutaneous injection (Example 12). It counts as in vivo. The settings on record: minipig; for Cmax: read-out: maximum concentrations (Cmax), mean; for AUC(0-t): read-out: mean total exposure (AUC0-t); for Tmax: read-out: times post dose for maximum concentration (Tmax), median. As for the experimental part:
The peptide was reconstituted in saline (0.9% NaCl). Three Göttingen minipigs (approximately 8-10 months of age) were used per group. Intravenous doses were administered into an ear vein at the dose of 0.5 μmol net peptide/kg. Subcutaneous doses were administered into the right flank of each animal, also at the dose of 0.5 μmol net peptide/kg. Following dosing, serial whole blood samples (ca. 0.25 mL) were collected from a jugular vein into K2EDTA treated containers. Following each blood sample collection, samples were placed into a cooling block at 4° C. Samples were collected prior to dosing then at 5 and 30 minutes then 1, 2, 4, 8, 25, 48, 72 and 96 hours post dose for intravenous injection and at 15 and 30 minutes then 1, 2, 4, 8, 25, 48, 72 and 96 hours post dose for subcutaneous injection.
Blood samples were centrifuged at 10000×g for 2 minutes at 4° C. and resultant plasma aspirated off into clean fully, labelled tubes. Plasma samples were snap frozen following aspiration then stored at −80° C. Peptide extraction and analysis were performed as described in Example 9. The limit of quantification of this method is 0.0015 nmol/mL. All values below this limit of quantification are considered as zero.

Data set [3] is described as follows: Pharmacokinetics of acylated analogs in male Sprague Dawley rats after subcutaneous injection (Example 11). As to conditions: sc, rat. It counts as in vivo.
Data set [4] relates to ovariectomized (OVX) rats. Description: Bone μCT of proximal tibia in ovariectomized (OVX) rats after 6-week treatment. It counts as in vivo, female Sprague-Dawley rats. The settings on record: 0.8, 1.6 or 3.2 mg/kg s.c. twice a day, 6 weeks; dose-dependent. As for the experimental part: (§1) Effects on bone of three doses of HBD1 (3-11) with stearic acid at the N-terminus (C18:0) analog were tested in vivo in ovariectomized (OVX) rats, a recognized model for human osteoporosis, in particular postmenopausal osteoporosis. Each group included ten female Sprague-Dawley rats that were four months of age at the beginning of the in-life phase of the study. Treatment started six weeks after OVX surgery and lasted for six additional weeks. Groups were randomized before surgery according to body weight and tibial metaphysis Bone Mineral Density (BMD) as measured by peripheral quantitative computed tomography (pQCT) from Norland Stratec XCT Research SA equipment (Norland Stratec Medizintechnik, Birkenfeld, Germany).
(§2) The peptide was reconstituted in saline solution (0.9% NaCl) and administered subcutaneously twice a day at the doses of 0.8 mg/kg (low), 1.6 mg/kg (med) or 3.2 mg/kg (high) in a volume of 1 mL/kg. The control group was administered twice a day with saline by s.c. administration. Rats were weighed once a week and the volume of dosing solution administered was adjusted accordingly.
High-resolution micro-computed tomography (μCT) measurements using SkyScan 1072 or 1172 High Resolution Scanner (Bruker microCT, Kontich, Belgium) were performed ex vivo in right proximal tibia at the end of the treatment period for measuring bone volume, bone cross-sectional dimensions and bone microarchitecture. FIGS. 5A, 5B and 5C show the percent increase from OVX animals HBD1 (3-11) with stearic acid at the N-terminus (C18:0) groups for following selected parameters: Bone Volume Fraction (BV/TV; %), Trabecular number (Tb.N; mm^−1) and Connectivity Density (Conn.D; mm^−3).

Data set [5] relates to ovariectomized (OVX) rats. In words: Bone biomechanical tests (lumbar vertebrae compression, femoral neck cantilever bending) in OVX rats. It counts as in vivo, female Sprague-Dawley rats. As to conditions: 3.2 mg/kg BID s.c., 6 weeks. As for the experimental part: as §1, §2
Bone biomechanical properties were determined by compression test using Instron 3343 biomechanical testing system (Instron, Norwood, Mass., USA). […]

[6] abbreviates: male, Sprague Dawley, plasma, iv.
Where [7] appears, read: male, Sprague Dawley, plasma, sc.
Where [8] appears, read: Göttingen, plasma, 0.5 umol/kg, iv, 0.5 μmol/kg.
[9] abbreviates: Göttingen, plasma, 0.5 umol/kg, sc, 0.5 μmol/kg.

Residues, ends and D or L forms follow the SMILES beside them. *: point of attachment. Stearoyl = CCCCCCCCCCCCCCCCCC(=O)*

Consider `CCCCCCCCCCCCCCCCCC(=O)N[C@@H](Cc1c[nH]cn1)C(=O)N[C@@H](CC(C)C)C(=O)NCC(=O)N[C@@H](CC(C)C)C(=O)N[C@@H](CCC(=O)O)C(=O)N[C@@H](CCC(=O)O)C(=O)N1CCC[C@H]1C(=O)N[C@@H](CCCCN)C(=O)N[C@@H](CCCCN)C(=O)O` [SEQ ID NO: 73, C18:0-HLGLEEPKK] (Stearoyl-HLGLEEPKK-OH; C-terminus assumed), for which the “Tlast (last time point with detectable peptide)” value in data set [1] (iv) came to 8 h. For the same compound, the bioavailability in data set [1] (male, Sprague Dawley, plasma, subcutaneous, sc vs iv, read-out: F (bioavailability)) turned out to be 52%. Moreover, in data set [1] (setting [6]), the AUC(0-t) was 9.28 µM·h, the Cmax was 10.2 µM and the Tmax was 0.033 h. In data set [1] (setting [7]), the AUC(0-t) worked out at 4.81 µM·h, the Cmax came out at 0.54 µM and the Tmax stood at 4 h. The “Tlast (last time point with detectable peptide)” value in data set [1] (sc) was determined as 8 h. Further, in data set [2] (setting [8]), the Cmax is 6.27 µM, the AUC(0-t) was determined as 3.75 µM·h and the Tmax is 0.083 h. Further, in data set [2] (setting [9]), the Cmax was 0.29 µM, the AUC(0-t) is 3.07 µM·h and the Tmax was found to be 4 h. The bioavailability in data set [2] (Göttingen, plasma, sc, 0.5 umol/kg, read-out: mean calculated subcutaneous bioavailability relative to i.v.) was 83.1%. For the same compound, the “exposure duration after subcutaneous administration” value in data set [2] (sc, 0.5 μmol/kg) is recorded as “up to 25 hours”. Also, the “peptide exposure compared among acylated peptides (in words)” value in data set [3] is given as “higher peptide exposure”. For the same compound, in data set [4], the “Bone Volume Fraction (BV/TV) at tibial metaphysis vs OVX vehicle” value is listed as “increased”, the “Connectivity Density (Conn.D) at tibial metaphysis vs OVX vehicle” value was “increased” and the “Trabecular number (Tb.N) at tibial metaphysis vs OVX vehicle” value is on record as “increased”. Also, in data set [5], the “biomechanical properties of femoral neck (load at break point)” value is listed as “improved” and the “biomechanical properties of lumbar vertebrae (maximal load, energy absorption at maximal load, stress at maximal load)” value is reported as “improved”.

The bioavailability is dose-corrected exposure relative to a reference, in per cent.

The values above are taken from patent publication US20190352358A1, “COMPOUNDS, COMPOSITIONS AND USES THEREOF FOR IMPROVEMENT OF BONE DISORDERS” (ALIZE PHARMA III SAS, priority 2017, published 2019).
